From publication PMC6177136, “Hybrid topoisomerase I and HDAC inhibitors as dual action anticancer agents” (PLoS ONE, 2018)

Tests used:
MM404 = assay: Cytotoxicity assay, primary mesothelioma MM404; assay type: cell-based, Human; settings: epithelioid, 72 h, SBR assay; read-out: IC50 ± SD MM404
MM473 = assay: Cytotoxicity assay, primary mesothelioma MM473; assay type: cell-based, Human; settings: epithelioid, 72 h, SBR assay; read-out: IC50 ± SD MM473
MM491 = assay: Cytotoxicity assay, primary mesothelioma MM491; assay type: cell-based, Human; settings: biphasic, 72 h, SBR assay; read-out: IC50 ± SD MM491
MM487 = assay: Cytotoxicity assay, primary mesothelioma MM487; assay type: cell-based, Human; settings: biphasic, 72 h, SBR assay; read-out: IC50 ± SD MM487
MM472 = assay: Cytotoxicity assay, primary mesothelioma MM472; assay type: cell-based, Human; settings: sarcomatoid, 72 h, SBR assay; read-out: IC50 ± SD MM472
MM481 = assay: Cytotoxicity assay, primary mesothelioma MM481; assay type: cell-based, Human; settings: epithelioid, 72 h, SBR assay; read-out: IC50 ± SD MM481
MM432 = assay: Cytotoxicity assay, primary mesothelioma MM432; assay type: cell-based, Human; settings: sarcomatoid, 72 h, SBR assay; read-out: IC50 ± SD MM432
MM288 = assay: Cytotoxicity assay, primary mesothelioma MM288; assay type: cell-based, Human; settings: epithelioid, 72 h, SBR assay; read-out: IC50 ± SD MM288
MM317 = assay: Cytotoxicity assay, primary mesothelioma MM317; assay type: cell-based, Human; settings: epithelioid, 72 h, SBR assay; read-out: IC50 ± SD MM317
HeLa = assay: Cytotoxicity assay (SRB, 72 h) HeLa; assay type: cell-based, Human; settings: Homo sapiens, HeLa, read-out: IC50 ± SD HeLa
A431 = assay: Cytotoxicity assay (SRB, 72 h) A431; assay type: cell-based, Human; settings: Homo sapiens, A-431, read-out: IC50 ± SD A431
HDAC6 = HDAC6 (Homo sapiens, UniProt Q9UBN7); assay: HDAC profiling HDAC6; assay type: biochemical; settings: purified isoform, 10 concentrations from 10 μM, triplicate
Chain of HDAC6 (Q9UBN7 whole entry, canonical isoform): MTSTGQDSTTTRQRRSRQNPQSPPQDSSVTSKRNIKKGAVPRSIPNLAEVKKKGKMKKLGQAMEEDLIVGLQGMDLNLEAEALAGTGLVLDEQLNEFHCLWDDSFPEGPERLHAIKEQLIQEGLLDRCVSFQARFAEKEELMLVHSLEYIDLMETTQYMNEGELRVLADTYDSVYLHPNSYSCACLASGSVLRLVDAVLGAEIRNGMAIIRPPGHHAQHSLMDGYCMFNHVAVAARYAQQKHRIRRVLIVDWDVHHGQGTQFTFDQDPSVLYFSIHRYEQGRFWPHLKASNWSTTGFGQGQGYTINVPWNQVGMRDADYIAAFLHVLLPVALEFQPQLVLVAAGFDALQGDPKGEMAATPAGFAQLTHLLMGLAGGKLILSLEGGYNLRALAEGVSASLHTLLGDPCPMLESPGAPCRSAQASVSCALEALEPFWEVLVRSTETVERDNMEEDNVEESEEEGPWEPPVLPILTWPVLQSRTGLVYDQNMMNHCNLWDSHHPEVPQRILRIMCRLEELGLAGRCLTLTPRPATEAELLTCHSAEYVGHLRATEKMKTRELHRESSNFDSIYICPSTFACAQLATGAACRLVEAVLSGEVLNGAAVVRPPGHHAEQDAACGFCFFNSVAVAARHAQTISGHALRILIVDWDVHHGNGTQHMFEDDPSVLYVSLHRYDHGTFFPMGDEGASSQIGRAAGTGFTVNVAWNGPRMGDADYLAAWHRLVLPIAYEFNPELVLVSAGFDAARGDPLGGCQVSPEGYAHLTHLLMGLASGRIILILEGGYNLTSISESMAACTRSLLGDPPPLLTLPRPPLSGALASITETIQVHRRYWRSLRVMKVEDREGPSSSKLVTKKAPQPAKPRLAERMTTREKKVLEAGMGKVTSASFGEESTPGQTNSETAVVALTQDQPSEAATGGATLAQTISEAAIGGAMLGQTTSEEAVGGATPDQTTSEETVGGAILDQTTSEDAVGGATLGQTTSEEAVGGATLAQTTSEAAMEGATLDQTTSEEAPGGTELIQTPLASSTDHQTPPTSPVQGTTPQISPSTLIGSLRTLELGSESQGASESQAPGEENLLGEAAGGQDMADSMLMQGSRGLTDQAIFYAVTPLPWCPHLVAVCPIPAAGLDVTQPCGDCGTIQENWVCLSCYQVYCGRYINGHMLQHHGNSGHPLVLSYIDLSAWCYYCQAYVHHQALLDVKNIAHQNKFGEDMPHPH

NCI-H460 = assay: Cytotoxicity assay (SRB, 72 h) NCI-H460; assay type: cell-based, Human; settings: Homo sapiens; for IC50: NCI-H460, 72 h, SRB assay, read-out: IC50 ± SD NCI-H460
HDAC2 = HDAC2 (Homo sapiens, UniProt Q92769); assay: HDAC profiling HDAC2; assay type: biochemical; settings: purified isoform, 10 concentrations from 10 μM, triplicate
Chain of HDAC2 (Q92769 whole entry, canonical isoform): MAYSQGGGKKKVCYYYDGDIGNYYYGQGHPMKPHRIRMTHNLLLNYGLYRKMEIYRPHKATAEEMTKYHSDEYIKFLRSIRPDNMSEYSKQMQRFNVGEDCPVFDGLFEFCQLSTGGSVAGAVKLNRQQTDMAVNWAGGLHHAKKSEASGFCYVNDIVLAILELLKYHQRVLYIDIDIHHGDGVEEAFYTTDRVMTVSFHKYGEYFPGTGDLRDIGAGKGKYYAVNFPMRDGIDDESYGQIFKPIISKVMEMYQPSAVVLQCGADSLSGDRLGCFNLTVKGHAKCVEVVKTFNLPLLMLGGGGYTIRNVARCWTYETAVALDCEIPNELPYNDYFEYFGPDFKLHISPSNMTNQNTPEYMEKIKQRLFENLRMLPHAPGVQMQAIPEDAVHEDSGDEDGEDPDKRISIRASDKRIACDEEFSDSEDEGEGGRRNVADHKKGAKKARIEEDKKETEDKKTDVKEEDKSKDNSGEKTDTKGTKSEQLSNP

A2780-Dx = assay: Cytotoxicity assay (SRB, 72 h) A2780-Dx; assay type: cell-based, Human; settings: for RI (Resistance Index): A2780-Dx versus A2780; for IC50: Homo sapiens, A2780/DX, 72 h, SRB assay, multidrug-resistant ovarian carcinoma, read-out: IC50 ± SD A2780-Dx
HDAC10 = HDAC10 (Homo sapiens, UniProt Q969S8); assay: HDAC profiling HDAC10; assay type: biochemical; settings: purified isoform, 10 concentrations from 10 μM, triplicate
Chain of HDAC10 (Q969S8 whole entry, canonical isoform): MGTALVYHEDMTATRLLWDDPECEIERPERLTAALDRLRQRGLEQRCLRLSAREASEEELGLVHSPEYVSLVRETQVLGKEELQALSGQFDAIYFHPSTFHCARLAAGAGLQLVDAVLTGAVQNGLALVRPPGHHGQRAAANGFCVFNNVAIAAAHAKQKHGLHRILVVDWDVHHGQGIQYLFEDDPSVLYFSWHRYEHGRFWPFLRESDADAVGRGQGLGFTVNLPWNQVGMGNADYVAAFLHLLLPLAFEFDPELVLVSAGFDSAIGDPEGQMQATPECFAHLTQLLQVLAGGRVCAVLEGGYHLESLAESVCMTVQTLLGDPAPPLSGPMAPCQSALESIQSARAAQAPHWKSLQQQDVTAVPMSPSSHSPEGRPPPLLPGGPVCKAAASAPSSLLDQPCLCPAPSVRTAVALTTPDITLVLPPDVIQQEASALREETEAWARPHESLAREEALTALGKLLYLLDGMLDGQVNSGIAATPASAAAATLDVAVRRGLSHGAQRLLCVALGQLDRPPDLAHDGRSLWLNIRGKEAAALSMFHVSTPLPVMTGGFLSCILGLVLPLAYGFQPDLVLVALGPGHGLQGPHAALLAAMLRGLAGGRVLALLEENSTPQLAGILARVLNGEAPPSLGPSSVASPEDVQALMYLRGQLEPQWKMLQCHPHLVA

A2780 = assay: Cytotoxicity assay (SRB, 72 h) A2780; assay type: cell-based, Human; settings: Homo sapiens, A2780, read-out: IC50 ± SD A2780
Acetylated Histone H4 = assay: Western blot, acetylation of histone H4 in NCI-H460 cells; assay type: cell-based, Human; settings: 24 h; SN38 0.05 μM, SAHA 5 μM, 3b and 3d 0.125–0.2–0.5 μM
Experimental: (§1) The supernatant, containing the total proteins extracts, were transferred in new vials. The protein concentration was measured by Bradford Protein Assay. Equal amounts of proteins for each sample were then resolved by SDS-PAGE and loaded on 10–12% polyacrilamide gels. The proteins were then transferred on nitrocellulose membranes. Molecular weights were estimated based upon the relative migration with molecular weight protein markers.
(§2) The non-specific binding was blocked by incubation of membranes in TBS-tween (25 mM Tris, 150 mM NaCl, 0.1% Tween 20) with 5% nonfat dry milk (BIORAD, Milan) for 60 minutes. Subsequently, the membrane was incubated overnight with primary antibodies: anti-Histone H4 (Millipore, 1:500), anti-acetyl-H4 (Santa Cruz, 1:1000) anti-p21 (Santa Cruz, 1:1000), anti-acetyl-tubulin (abcam, 1:1000), anti-α-tubulin (Sigma, 1:5000), anti β-actin (Sigma, 1:5000) and anti-Topoisomerase 1 (Santa Cruz, 1:500). After three washes with TBST blots were incubated with HRP-coniugated secondary anti-mouse and anti-rabbit (Santa Cruz, 1:5000) 1 hour at room temperature. After three washes with TBST the blots were developed with ECL substrate (GE Healthcare) and chemiluminescence detected by ChemiDoc Imaging System (Biorad). The optical density of the protein bands detected by western blotting was normalized on α -tubulin levels and analyzed by ChemiDoc software (Biorad). […]

HDAC1 = HDAC1 (Homo sapiens, UniProt Q13547); assay: HDAC profiling HDAC1; assay type: biochemical; settings: purified isoform, 10 concentrations from 10 μM, triplicate
Chain of HDAC1 (Q13547 whole entry, canonical isoform): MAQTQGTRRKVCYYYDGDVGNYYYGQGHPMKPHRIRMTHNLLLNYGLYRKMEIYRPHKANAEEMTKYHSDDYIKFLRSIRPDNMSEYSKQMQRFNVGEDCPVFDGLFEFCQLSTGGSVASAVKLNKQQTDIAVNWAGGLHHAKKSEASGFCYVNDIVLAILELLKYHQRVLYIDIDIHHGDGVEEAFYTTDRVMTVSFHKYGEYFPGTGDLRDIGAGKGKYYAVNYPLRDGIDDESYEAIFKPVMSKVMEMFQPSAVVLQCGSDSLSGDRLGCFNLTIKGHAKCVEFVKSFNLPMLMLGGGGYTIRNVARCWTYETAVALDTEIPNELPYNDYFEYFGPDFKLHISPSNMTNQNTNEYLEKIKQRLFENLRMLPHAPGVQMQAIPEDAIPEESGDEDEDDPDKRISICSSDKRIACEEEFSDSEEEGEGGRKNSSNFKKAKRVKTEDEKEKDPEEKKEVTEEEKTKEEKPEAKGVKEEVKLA

Acetylated Tubulin = assay: Western blot, acetylation of tubulin in NCI-H460 cells; assay type: cell-based, Human; settings: 24 h; SN38 0.05 μM, SAHA 5 μM, 3b and 3d 0.125–0.2–0.5 μM
Experimental: as §1, §2

Capan 1 = assay: Cytotoxicity assay (SRB, 72 h) Capan 1; assay type: cell-based, Human; settings: Homo sapiens, CAPAN-1, read-out: IC50 ± SD Capan 1

N.N.[Cl][Pt][Cl] [Cisplatin]
IC50 (MM404): 2400 ± 500 nM
IC50 (MM473): 2400 ± 200 nM
IC50 (MM491): 6500 ± 900 nM
IC50 (MM487): 3000 ± 500 nM
IC50 (MM472): 1260 ± 100 nM
IC50 (MM481): 7000 ± 1500 nM
IC50 (MM432): 5000 ± 800 nM
IC50 (MM288): 8100 ± 300 nM
IC50 (MM317): 4200 ± 600 nM

CC[C@@]1(O)C(=O)OCc2c1cc1n(c2=O)Cc2c-1nc1ccccc1c2C=NOCCCCCC(=O)NO [Compound 3b, 6-(camptothecin-7-ylmethyleneaminooxy)-hexanoic acid hydroxyamide]
IC50 (HeLa): 160 ± 40 nM
IC50 (A431): 4 ± 1 nM
IC50 (HDAC6): 3.87 nM
IC50 (NCI-H460): 23 ± 4 nM
IC80 (NCI-H460; NCI-H460 cells): 500 nM
IC50 (HDAC2): 76.2 nM
RI (Resistance Index) (A2780-Dx): 31.7
IC50 (A2780-Dx): 270 ± 70 nM
IC50 (HDAC10): 99.9 nM
IC50 (A2780): 8 ± 2 nM
accumulation of acetylated histone H4 (Acetylated Histone H4): less potent than 3d on both targets, particularly on H4
IC50 (HDAC1): 43 nM
accumulation of acetylated tubulin (Acetylated Tubulin): less potent than 3d on both targets
IC50 (Capan 1): 6 ± 0.7 nM

CC[C@@]1(O)C(=O)OCc2c1cc1n(c2=O)Cc2c-1nc1ccccc1c2C=NOCCCCCCNC(=O)CS [Compound 10, N-[camptothecin-7-yl-(methyleneaminooxy)-hexyl]-2-mercaptoacetamide]
IC50 (NCI-H460): 100 ± 10 nM
RI (Resistance Index) (A2780-Dx): 1.7
IC50 (A2780-Dx): 350 ± 100 nM
IC50 (A2780): 210 ± 50 nM
melting point: 120 °C
